{"source": "patent US10046052B2", "about": "“Method and formulation for cold treatment in adults and children with increased safety” (priority 2010, dated 2018)", "system": "patients with cold, cough and other symptoms of respiratory infection (Upper Respiratory Infection, URI/cold)", "note": "Read-outs that look alike come from different tables or passages of the source.", "from_the_text": "Representative Samples of Clinical Cases of Patients of Varying Ages Treated by a Doctor, with Non or Minimally Sedating Antihistamines for Cold, Cough and Other Symptoms of Respiratory Infection:", "data": [{"smiles": "O=C(O)COCCN1CCN(C(c2ccccc2)c2ccc(Cl)cc2)CC1", "note": "(stereo not drawn) [Cetirizine]", "values": [{"measurement": "relief of URI symptoms", "setting": "Case 1: URI/cold, Cetirizine 10 mg QHS with Triamcinolone Nasal Spray", "result": "rapid relief of URI symptoms"}, {"measurement": "relief of URI symptoms", "setting": "Case 2: same patient as Case 1, URI/cold and Bronchitis, Cetirizine 10 mg QHS, already taking Triamcinolone Nasal Spray", "result": "rapid relief of URI symptoms"}, {"measurement": "relief of URI symptoms", "setting": "Case 3: same patient as Case 1, URI/cold, Cetirizine 10 mg QHS", "result": "rapid relief of URI symptoms"}, {"measurement": "relief of URI symptoms", "setting": "Case 8: URI/cold/Allergic Rhinitis, Cetirizine 10 mg QHS", "result": "rapid relief of URI symptoms"}, {"measurement": "relief of URI and Bronchitis symptoms", "setting": "Case 9: same patient as Case 8, URI/cold/Bronchitis, Allergic Rhinitis, Cetirizine 10 mg QHS and Amoxicillin Clavulanate", "result": "rapid relief of URI and Bronchitis symptoms"}, {"measurement": "relief of URI symptoms", "setting": "Case 14: URI, Cetirizine Liquid 2.5 mg QHS", "result": "rapid relief of URI symptoms"}]}, {"smiles": "CC(C)(C(=O)O)c1ccc(C(O)CCCN2CCC(C(O)(c3ccccc3)c3ccccc3)CC2)cc1", "note": "(stereo not drawn) [Fexofenadine]", "values": [{"measurement": "relief of URI symptoms", "setting": "Case 4: URI/cold, Fexofenadine 180 mg QD with Triamcinolone Nasal Spray", "result": "rapid relief of URI symptoms"}, {"measurement": "relief of Pharyngitis and Bronchitis symptoms", "setting": "Case 10: Pharyngitis, Asthma, COPD, Fexofenadine 180 mg QD, Amoxicillin Clavulanate, Prednisone", "result": "rapid relief of Pharyngitis and Bronchitis symptoms"}, {"measurement": "relief of URI and Sinusitis symptoms", "setting": "Case 11: URI/cold, rule out Sinusitis, Fexofenadine 60 mg BID, Amoxicillin Clavulanate", "result": "rapid relief of URI and Sinusitis symptoms"}, {"measurement": "relief of URI symptoms", "setting": "Case 12: same patient as Case 11, Allergic Rhinitis/URI/cold, Fexofenadine 60 mg BID", "result": "rapid relief of URI symptoms"}, {"measurement": "relief of URI symptoms", "setting": "Case 13: same patient as Cases 11 and 12, URI/cold, Fexofenadine 60 mg BID", "result": "rapid relief of URI symptoms"}]}, {"smiles": "O=C(O)COCCN1CCN([C@H](c2ccccc2)c2ccc(Cl)cc2)CC1", "note": "[Levocetirizine]", "values": [{"measurement": "relief of URI symptoms", "setting": "Case 5: child, URI/cold, Levocetirizine 2.5 mg at bedtime, Carbinoxamine with Dextromethorphan discontinued", "result": "rapid relief of URI symptoms"}, {"measurement": "relief of cough", "setting": "Case 6: same patient as Case 5, URI/cold, resumed Levocetirizine 2.5 mg at bedtime", "result": "rapid relief of cough"}, {"measurement": "relief of URI symptoms", "setting": "Case 7: same patient as Case 6, Pharyngitis, URI/cold, Levocetirizine 2.5 mg at bedtime, using Mometasone Nasal Spray, asthma inhaler, Montelukast", "result": "rapid relief of URI symptoms"}]}, {"smiles": "CCOC(=O)N1CCC(=C2c3ccc(Cl)cc3CCc3cccnc32)CC1", "note": "[Loratidine]", "values": [{"measurement": "relief of URI symptoms", "setting": "Case 15: URI/Pharyngitis, Loratidine 10 mg QD, Azithromycin prescribed by Pediatrician", "result": "rapid relief of URI symptoms"}]}]}
